This is an account of results in ChEMBL document CHEMBL4382204 (Eur J Med Chem, 2018).

Structures are written as SMILES.

In data set [1] the target is Platelet-derived growth factor receptor beta (Homo sapiens) (UniProt P09619). Nature of the data set: Inhibition of wild type C-terminal FLAG-tagged human TEL fused PDGFRbeta (unknown origin) transfected in mouse BAF3 cells assessed as growth inhibition after 72 hrs by CCK8 assay. Format: cell-based. (Formazan colour is commonly taken as a measure of viable cells.)
Data set [2] can be described thus: Half life in mouse at 10 mg/kg, po by LC-MS/MS analysis. Particulars: in vivo. Format: ADME, organism-based.
In data set [3] the test system is Bcr/Abl fusion protein (Homo sapiens), P00519+P11274 [Q252H]. The note with it: BaF3.
The subject of data set [4] is Bcr/Abl fusion protein (Homo sapiens), P00519+P11274 [M351T]. Particulars: BaF3.

Sequence of Platelet-derived growth factor receptor beta (Homo sapiens) (P09619 whole entry, the tested form may be a part): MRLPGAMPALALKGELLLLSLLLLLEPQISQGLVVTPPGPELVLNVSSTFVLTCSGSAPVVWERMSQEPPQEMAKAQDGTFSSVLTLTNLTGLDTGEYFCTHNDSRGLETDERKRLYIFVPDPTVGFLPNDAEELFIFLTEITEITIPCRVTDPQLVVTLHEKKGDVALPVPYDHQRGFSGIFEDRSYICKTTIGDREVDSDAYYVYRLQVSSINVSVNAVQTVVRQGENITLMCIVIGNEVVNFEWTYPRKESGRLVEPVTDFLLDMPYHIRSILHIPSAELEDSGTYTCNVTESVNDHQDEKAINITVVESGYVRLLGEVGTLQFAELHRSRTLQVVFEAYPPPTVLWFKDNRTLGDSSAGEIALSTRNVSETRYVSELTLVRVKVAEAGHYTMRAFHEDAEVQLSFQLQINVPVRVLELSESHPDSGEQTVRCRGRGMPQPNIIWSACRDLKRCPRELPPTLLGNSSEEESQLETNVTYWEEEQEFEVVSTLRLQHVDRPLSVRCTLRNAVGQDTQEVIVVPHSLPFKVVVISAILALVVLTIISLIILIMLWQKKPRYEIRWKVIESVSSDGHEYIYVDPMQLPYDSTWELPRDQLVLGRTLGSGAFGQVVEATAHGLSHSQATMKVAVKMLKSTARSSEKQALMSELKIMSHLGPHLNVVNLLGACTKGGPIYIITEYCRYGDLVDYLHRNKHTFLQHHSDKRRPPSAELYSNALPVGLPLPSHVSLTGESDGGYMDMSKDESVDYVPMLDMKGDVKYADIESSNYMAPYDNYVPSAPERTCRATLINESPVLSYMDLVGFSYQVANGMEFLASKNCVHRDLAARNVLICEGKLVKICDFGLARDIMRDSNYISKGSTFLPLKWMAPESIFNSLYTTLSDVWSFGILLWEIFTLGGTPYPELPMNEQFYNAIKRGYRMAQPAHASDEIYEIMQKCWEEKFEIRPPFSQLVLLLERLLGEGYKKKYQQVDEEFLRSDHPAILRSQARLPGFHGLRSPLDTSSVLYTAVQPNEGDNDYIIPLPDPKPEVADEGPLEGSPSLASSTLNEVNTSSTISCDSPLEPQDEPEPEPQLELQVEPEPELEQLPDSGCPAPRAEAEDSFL

In the case of `CN1CCN(Cc2ccc(NC(=O)CCSc3ccc4c(/C=C/c5ccccn5)n[nH]c4c3)cc2C(F)(F)F)CC1`, the 50% growth inhibitory concentration (GI50) in data set [1] came to 8 nM; in data set [3], 15 nM; in data set [4], 17 nM. Besides, in data set [2], the half-life was 2 h.

The term GI50 denotes the concentration at which growth is held to half of that of the control. What is called half-life is the time in which the quantity being followed falls by half.
